System: Gardnerella vaginalis
Assay: Gardnerella vaginalis-infected mouse vaginitis model, microbiome analysis after vaginal administration
Type: in vivo, female mice (BALB/c mice)
Protocol: The hormone control and estrous cycle were induced by intraperitoneally injecting 0.5 mg of beta-esteradiol 3-benzonate to female mice (BALB/c mice). After three days, they were directly infected with Gardnerella vaginalis in the vagina at a concentration of 1×10^7 CFU per mouse to establish a vaginitis animal model. Thereafter, four kinds of Lactobacillus isolates corresponding to 10^8 to 10^9 CFU per mouse were vaginally administered (7 mice per group). On day 2, the total bacterial DNA was extracted from the vaginal samples washed with 0.1 mL of PBS (Phosphate Buffered Saline) and microbiome community analysis was performed to measure the relative abundance of Gardnerella vaginalis and other vaginal microbiota. […] The analyzed sequences were subjected to microbiome analysis including taxon profile, α-diversity and β-diversity showing the difference in community structure between groups through Qiime pipeline, and the change in the amount of Gardnerella vaginalis pathogens upon the administration of Lactobacillus isolates was evaluated by calculating relative abundances (/% GV treatment group).

Compound: Cc1ncc([N+](=O)[O-])n1CCO [MTZ, metronidazole]
- community structure of the vaginal microflora (Unweighted UniFrac distance) (compared to Gardnerella vaginalis-infected control group, after 2 days of administration): no change in the community structure
- Relative abundance (/% GV group) of Gardnerella vaginalis (vaginal administration after infection, day 2, 16S microbiome analysis, GV group = 100): 74.9 /% GV group

Reference: patent US12070477B2, “Lactobacillus sp. strain having ability to inhibit growth of vaginal pathogenic microorganisms” (KoBioLabs, Inc., priority 2015, dated 2024)
